Laboratory results from article PMC11857530, “Antioxidant Peptides from Miiuy Croaker Swim Bladders: Ameliorating Effect and Mechanism in NAFLD Cell Model through Regulation of Hypolipidemic and Antioxidant Capacity” (Marine Drugs, 2025).
Blank lines part the entries; values can stand above or below the molecule they belong to. Where no end group is shown, it is not given here.

Key:
[1] = system: liver dysfunction caused by hyperglycemia; details: ref [29]; cited from earlier work
Source text: (§1) Bioactive peptides (BPs) have been produced from diverse plant and animal proteins, such as mammals, poultry, beans, mollusks, fish, Antarctic krill, algae, etc. Beyond their important nutritional benefits, BPs show remarkable bioactivity and pharmacological functions, with numerous potential applications for human health. […] For example, GINY and DQW from α-lactalbum ...

pancreatic lipase (PL) = molecular target: T1, pancreatic lipase (PL) (Sus scrofa, UniProt P00591); test: Pancreatic lipase (PL) inhibitory activity; type: biochemical; details: PNPB substrate, 15 min pre-incubation, 20 min, 37 °C; absorbance 405 nm
T1 construct: purchased Solarbio Life Sciences Co., Ltd. (Beijing, China)
T1 sequence (P00591 1-450): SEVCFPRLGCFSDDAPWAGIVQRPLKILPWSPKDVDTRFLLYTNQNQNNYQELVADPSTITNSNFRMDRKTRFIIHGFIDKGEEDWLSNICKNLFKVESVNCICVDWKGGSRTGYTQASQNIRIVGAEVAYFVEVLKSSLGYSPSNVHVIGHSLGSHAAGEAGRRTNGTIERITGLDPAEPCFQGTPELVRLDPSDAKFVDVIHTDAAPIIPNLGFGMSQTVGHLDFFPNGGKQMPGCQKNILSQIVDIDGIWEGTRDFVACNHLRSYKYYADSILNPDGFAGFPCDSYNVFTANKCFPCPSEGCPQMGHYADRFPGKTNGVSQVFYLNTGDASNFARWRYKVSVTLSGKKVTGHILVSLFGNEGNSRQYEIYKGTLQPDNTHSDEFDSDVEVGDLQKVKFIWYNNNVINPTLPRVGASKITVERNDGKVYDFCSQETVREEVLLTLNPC
Protocol: Sodium taurocholate, pancreatic lipase, cholesterol esterase, and Tris buffer solution were purchased from Solarbio Life Sciences Co., Ltd. (Beijing, China). […] P-nitrophenyl butyrate (PNPB) was purchased from Shanghai Macleans Biochemical Co., Ltd. (Shanghai, China).
The in vitro pancreatic lipase (PL) inhibitory activity was measured using the method of Cai et al. [78], with slight modifications. Pancreatic lipase was first dissolved in 100 mM Tris buffer (2 mg/mL) and the supernatant was obtained by centrifugation. Tris buffer was then prepared as 0.1% (w/v) PNPB solution. The 50 μL peptide sample was incubated with 50 μL Tris buffer solution and 50 μL pancreatic lipase solution at 37 °C for 15 min, and then 100 μL PNPB solution was added. After 20 min at 37 °C, the absorbance value was measured at 405 nm. In the blank group, pure water was used instead of a sample. In the blank control group, the samples were replaced with pure water and the pancreatic lipase solution was replaced with a buffer solution. […] The pancreatic lipase (PL) inhibitory rate was calculated using the following formula:PL inhibitory rate (%) = [1 − (A − A0)/(B − B0)] × 100%(2) where A, A0, B, and B0 are the absorbance values determined at 405 nm of the sample, the sample control, the blank, and the blank control after the reaction, respectively.

[2] = system: AMP-activated protein kinase (AMPK) pathway; details: via AMPK pathway; ref [58],[61]; cited from earlier work
Source text: (§2) Modern unhealthy lifestyles, especially a HFD and lack of exercise, lead to the large accumulation of lipids in the human body, and the excess FFAs overloaded in the body are transferred from the bloodstream to the liver. If the rate of lipid oxidation is far slower than the synthesis rate, the large amounts of lipids accumulated in the liver will result in lipid metabolism disorder, steatosis, and ultimately the development of NAFLD [4, 58].

OA-induced HepG2 cells = test: Intracellular ROS level (DCFH-DA), OA-induced NAFLD cell model; type: cell-based, human; details: pretreated, compared to model group; concentration not given
Protocol: The OA-induced NAFLD cell model was established according to previous methods. HepG2 cells in the logarithmic growth phase were seeded into 96-well plates and cultivated in a humidified atmosphere of 5% CO2 at 37 °C for 24 h. OA was dissolved in 10% BSA and added to the DMEM with a final concentration of 80 μM. After this, the cells were cultured for 24 h, and the morphologies of the HepG2 cells were observed and photographed using a microscope. The HepG2 cells in the control wells were cultured for 24 h in DMEM without OA.
The ROS level was determined by the dichlorodihydrofluorescein diacetate (DCFH-DA) staining method. Briefly, HepG2 cells were seeded in 12-well plates and DCFH-DA was diluted to a final concentration of 10 μM at a ratio of 1:1000. Next, after the removal of the cell culture medium, the cells were washed three times with PBS. After this, the HepG2 cells were incubated with 10 μM DCFH-DA for 30 min at 37 °C. After washing with PBS three times again, the fluorescence of the HepG2 cells was monitored at 485 nm excitation (535 nm emission). Finally, images were acquired using a fluorescence microscope to observe the fluorescence intensity of DCFH-DA.

FFA-damaged HepG2 cells = details: regulating PERK/eIF2α and PERK/IκBα pathways; ref [28]; cited from earlier work
Source text: as §1

LXRα/SREBPs/HMGR pathway = details: via LXRα/SREBPs/HMGR pathway; ref [59],[60]; cited from earlier work
Source text: as §2

PPARα pathway = details: activating PPARα pathway; ref [26],[27]; cited from earlier work
Source text: as §1

HepG2 cells = test: MTT viability of HepG2 cells; type: cell-based, human; details: 100 μM, 24 h
Protocol: HepG2 human hepatoma cell line was purchased from Shanghai Cell Bank, Chinese Academy of Sciences. HepG2 cells were cultured in DMEM containing […] streptomycin, 50 U/mL penicillin, 2 mM glutamine, and 10% FCS in a humidified atmosphere of 5% CO2 at 37 °C.
The viability of the HepG2 cells was evaluated using the MTT assay via a previous method. In brief, S7 and S10 were dissolved in growth medium to form a peptide solution with a concentration of 200 μM. Then, the peptide solution was added to the growth medium of HepG2 cells with final concentrations of 10, 50, and 100 μM, and the cells were incubated for 24 h with peptide administration. The control group was treated with the growth medium without peptides. SV (1.0 mM) was used as a positive control.

Molecule: VHVV [A tetrapeptide (VHVV) from soy]
Effect on liver dysfunction [1]: strong preventive effect on liver dysfunction caused by hyperglycemia

IC50 (pancreatic lipase (PL)): 1.29 mM
Molecule: GIEWA [S10]

Molecule: IRWWW [antioxidant peptide from Miichthys miiuy muscle]
TG and TC content [2]: decrease the content of TG and TC

Molecule: CC(=O)N[C@@H](CS)C(=O)O [NAC]
ROS fluorescence intensity (OA-induced HepG2 cells): showed varying degrees of decrease compared to the model group

Molecule: VLATSGPG [VLATSGPG (VLA), peptide from salmon skins]
Lipid content and inflammation (FFA-damaged HepG2 cells): decrease the lipid content and inflammation

Molecule: VFVRN [derived from chickpea protein hydrolysate]
Hypolipidemic activity (LXRα/SREBPs/HMGR pathway): strong hypolipidemic activity

Molecule: VIAPW [antioxidant peptide from Miichthys miiuy muscle]
TG and TC content [2]: decrease the content of TG and TC

Molecule: GINY [peptide from α-lactalbumin]
Alleviation of NAFLD (PPARα pathway): decrease lipid deposition and oxidative stress

Molecule: VPDDD [S9, antioxidant peptide separated from swim bladder hydrolysate of the miiuy croaker]
Viability of HepG2 cells vs control (HepG2 cells): remarkably lower than that of the control (p < 0.05)

IC50 (pancreatic lipase (PL)): 1.67 mM
Molecule: FSGLR [S7]
